As usually defined, the melting point is the temperature, or range, at which the solid turns liquid.

Each structure is given as a SMILES string. Read-outs that look alike come from different tables or passages of the source. A value given as a limit tells only on which side of the number the result lay.

The target of one data set is T1, COX II enzyme (Mus musculus, UniProt Q05769).
T1 sequence (Q05769 18-604): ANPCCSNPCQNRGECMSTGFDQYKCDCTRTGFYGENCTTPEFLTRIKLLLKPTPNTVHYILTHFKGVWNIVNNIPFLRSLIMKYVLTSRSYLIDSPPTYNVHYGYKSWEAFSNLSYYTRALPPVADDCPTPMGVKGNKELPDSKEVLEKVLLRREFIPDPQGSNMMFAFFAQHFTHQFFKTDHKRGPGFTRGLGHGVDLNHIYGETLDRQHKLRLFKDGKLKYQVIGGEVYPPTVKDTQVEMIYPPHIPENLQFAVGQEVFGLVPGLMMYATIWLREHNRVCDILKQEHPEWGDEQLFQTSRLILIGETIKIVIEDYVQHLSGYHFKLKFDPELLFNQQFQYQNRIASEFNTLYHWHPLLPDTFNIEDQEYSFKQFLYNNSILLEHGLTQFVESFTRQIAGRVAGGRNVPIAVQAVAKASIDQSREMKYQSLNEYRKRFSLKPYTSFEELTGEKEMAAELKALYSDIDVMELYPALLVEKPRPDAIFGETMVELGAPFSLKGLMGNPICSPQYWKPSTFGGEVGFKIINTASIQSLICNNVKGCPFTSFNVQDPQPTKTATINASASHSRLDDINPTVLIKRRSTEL
To be noted: J. Biol. Chem., 268, 6610 (1993); cited from earlier work.

The target in another data set is T2, human COX I (Homo sapiens, UniProt P23219).
T2 construct: A 2.0 kb fragment containing the coding region; made in house; host or cells: SF9 insect cells (baculovirus, transfer vector pVL1393)
T2 sequence (P23219 24-599): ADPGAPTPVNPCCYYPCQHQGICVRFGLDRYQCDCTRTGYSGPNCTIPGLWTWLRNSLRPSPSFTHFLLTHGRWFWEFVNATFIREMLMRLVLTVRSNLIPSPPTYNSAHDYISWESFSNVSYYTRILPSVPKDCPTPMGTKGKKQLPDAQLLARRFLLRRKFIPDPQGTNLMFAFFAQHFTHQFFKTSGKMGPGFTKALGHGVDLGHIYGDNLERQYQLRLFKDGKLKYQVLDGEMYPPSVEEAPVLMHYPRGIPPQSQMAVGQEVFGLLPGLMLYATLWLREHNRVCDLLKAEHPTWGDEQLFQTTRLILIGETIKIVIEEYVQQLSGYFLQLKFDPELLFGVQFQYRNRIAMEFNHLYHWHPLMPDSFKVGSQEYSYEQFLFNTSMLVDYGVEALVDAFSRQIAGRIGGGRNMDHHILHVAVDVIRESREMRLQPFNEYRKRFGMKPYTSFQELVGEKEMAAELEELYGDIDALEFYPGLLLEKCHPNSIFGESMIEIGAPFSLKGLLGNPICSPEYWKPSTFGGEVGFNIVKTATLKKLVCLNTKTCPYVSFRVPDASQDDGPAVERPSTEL
In words: Assay for COX I activity in vitro (PGE2 ELISA, recombinant enzyme). The format is biochemical. Background: ELISA stands for enzyme-linked immunosorbent assay.

For another data set, the target named is T3, human COX II (Homo sapiens, UniProt P35354).
T3 construct: A 2.0 kb fragment containing the coding region; made in house; host or cells: SF9 insect cells (baculovirus, transfer vector pVL1393)
T3 sequence (P35354 18-604): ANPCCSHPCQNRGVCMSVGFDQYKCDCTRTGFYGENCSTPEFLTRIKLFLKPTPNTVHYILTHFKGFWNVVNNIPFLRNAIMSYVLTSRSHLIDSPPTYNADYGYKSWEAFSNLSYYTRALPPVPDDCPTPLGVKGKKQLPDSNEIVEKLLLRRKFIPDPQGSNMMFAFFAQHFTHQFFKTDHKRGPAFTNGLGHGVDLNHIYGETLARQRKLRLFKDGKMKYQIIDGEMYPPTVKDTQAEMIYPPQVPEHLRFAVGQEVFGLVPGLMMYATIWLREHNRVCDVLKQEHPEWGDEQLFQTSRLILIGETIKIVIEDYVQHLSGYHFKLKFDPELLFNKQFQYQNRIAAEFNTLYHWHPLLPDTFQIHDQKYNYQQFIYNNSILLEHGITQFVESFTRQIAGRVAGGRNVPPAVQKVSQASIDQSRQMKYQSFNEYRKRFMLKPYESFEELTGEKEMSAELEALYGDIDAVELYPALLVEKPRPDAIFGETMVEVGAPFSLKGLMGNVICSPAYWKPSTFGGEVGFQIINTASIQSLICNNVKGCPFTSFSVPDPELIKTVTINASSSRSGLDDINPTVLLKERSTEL
The data set is described as follows: Assay for COX II activity in vitro (PGE2 ELISA, recombinant enzyme). Type of data set: biochemical.

Data set [1] in a line: Whole Blood Assay for Thromboxane B2 Activity. The format is cell-based. To be noted: calcium ionophore A23187. The procedure: Whole Blood Assay for Thromboxane B2 Activity:
Thromboxane B2 (TXB2) activity was assayed using an ELISA to detect the TXB2 released. Various concentrations of compounds and standards were prepared by a set of serial dilutions (1:3) in a microtiter plate with ethanol. In U-bottom microtiter plates, 50 μl whole blood (green top heparin), 150 μl RPMI media (JRH Biosciences) and 5 μl compound solution were mixed and preincubated at 37° C. for fifteen minutes prior to the addition 4 μg of the calcium ionophore A23187. Any reaction between the compounds and the cells was stopped after ten minutes at 37° C. by centrifuging the cells at 2000 rpm for ten minutes at 4° C. and transferring 20 μl of the supernatant into 180 μl ELISA enzyme immuno assay buffer. The TXB2 formed was measured by standard ELISA technology (Cayman Chemical). To washed and pre-coated (goat anti-rabbit IgG H&L) microtiter plates, was added 40 μl enzyme immuno assay buffer, 10 μl diluted supernatants, 50 μl […] and 50 μl TXB2 antisera. After covered overnight incubation at room temperature. 200 μl Ellman reagent was added and incubated. The absorbance was read at 405 nm with a 650 nm reference.

The next data set deals with T4, Murine COX I (Mus musculus, UniProt P22437).
T4 construct: A 2.0 kb fragment containing the coding region; made in house; host or cells: SF9 insect cells (baculovirus, transfer vector pVL1393)
T4 sequence (P22437 27-602): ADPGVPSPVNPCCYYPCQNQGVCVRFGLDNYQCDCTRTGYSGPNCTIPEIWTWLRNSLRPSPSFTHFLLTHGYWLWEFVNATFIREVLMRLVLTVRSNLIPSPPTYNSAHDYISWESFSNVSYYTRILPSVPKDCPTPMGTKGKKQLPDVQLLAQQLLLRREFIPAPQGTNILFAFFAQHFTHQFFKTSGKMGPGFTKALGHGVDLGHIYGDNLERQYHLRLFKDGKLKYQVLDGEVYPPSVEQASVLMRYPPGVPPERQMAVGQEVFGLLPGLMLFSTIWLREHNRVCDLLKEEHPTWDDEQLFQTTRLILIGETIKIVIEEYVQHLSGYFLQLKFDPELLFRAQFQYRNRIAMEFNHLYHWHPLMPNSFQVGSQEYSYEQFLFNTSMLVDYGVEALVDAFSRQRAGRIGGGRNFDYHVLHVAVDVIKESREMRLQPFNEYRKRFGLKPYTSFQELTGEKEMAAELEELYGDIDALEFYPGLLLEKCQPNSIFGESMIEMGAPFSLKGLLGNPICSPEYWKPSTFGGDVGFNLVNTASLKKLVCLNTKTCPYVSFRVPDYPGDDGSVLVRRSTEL
The data set is described as follows: Assay for COX I activity in vitro (PGE2 ELISA, recombinant enzyme). The format is biochemical. As to conditions: read-out: Murine COX I ID50.

The target of a further data set is T5, Murine COX II (Mus musculus, UniProt Q05769).
T5 construct: A 2.0 kb fragment containing the coding region; made in house; host or cells: SF9 insect cells (baculovirus, transfer vector pVL1393)
T5 sequence (Q05769 18-604): T1 sequence (Q05769 18-604)
In words: Assay for COX II activity in vitro (PGE2 ELISA, recombinant enzyme). The format is biochemical. As to conditions: read-out: Murine COX II ID50.

The conditions of data set [2]: Gen. Pharmac., 24, 105 (1993); cited from earlier work.
For data set [3] the following is noted: Gen. Pharmac., 24, 105 (1993); cited from earlier work. This is another data set of the same source.

As to `COc1ccc2cc(CC(=O)O)ccc2c1` [6-methoxy-2-napthylacetic acid], the “selective inhibition of the COX II enzyme” value at COX II enzyme is on record as “selectively inhibit the COX II enzyme”.

As for `CS(=O)(=O)c1ccc(-c2cscc2-c2ccc(F)cc2)cc1` [Example 1, 3-(4-Methylsulfonylphenyl)-4-(4-fluorophenyl)thiophene], the IC50 at human COX I is more than 100 µM; at human COX II it was less than 0.1 µM; in data set [1], 21 µM.

Turning to `CS(=O)(=O)c1ccc(-c2csc(Br)c2-c2ccc(F)cc2)cc1` [Example 2, 4(4-Methylsulfonylphenyl)-3-(4-fluorophenyl)-2-bromothiophene], the IC50 on Murine COX I is 3.5 µM; in [1], 0.4 µM.

For `CS(=O)(=O)c1ccc(-c2c(Br)sc(Br)c2-c2ccc(F)cc2)cc1` [Example 3, 4-(4-Methylsulfonylphenyl)-3-(4-fluorophenyl)-2,5-dibromothiophene], the IC50 at Murine COX II amounted to 1.5 µM.

For `COc1ccc(-c2cscc2-c2ccc(OC)cc2)cc1` [Example 4, 3,4-Bis(4-methoxyphenyl)thiophene], the IC50 at Murine COX II was 0.8 µM; on Murine COX I, 0.3 µM; in data set [1], less than 0.1 µM.

Consider `CCOC(=O)c1scc(-c2ccc(S(C)(=O)=O)cc2)c1-c1ccc(F)cc1` [Example 5, Ethyl[4-(4-methylsulfonylphenyl)-3-(4-fluorophenyl)thien-2-yl]carboxylate], for which the IC50 on Murine COX II was less than 0.1 µM; at Murine COX I, more than 3 µM.

With `COc1ccc(-c2cscc2-c2ccc(S(C)(=O)=O)cc2)cc1` [Example 6, 3-(4-Methylsulfonylphenyl)-4-(4-methoxyphenyl)thiophene], the results for the IC50 at Murine COX II and at Murine COX I were less than 0.1 µM and less than 0.3 µM, respectively.

Take `COc1ccc(-c2c(-c3ccc(S(C)(=O)=O)cc3)csc2Br)cc1` [Example 7, 3-(4-Methylsulfonylphenyl)-4-(4-methoxyphenyl)-5-bromothiophene]: the IC50 (on Murine COX II; at Murine COX I; in data set [1]) was less than 0.1 µM throughout.

On to `CCOC(=O)c1sc(C(=O)O)c(-c2ccc(F)cc2)c1-c1ccc(S(C)(=O)=O)cc1` [Example 8, 2-Ethoxycarbonyl-4-(4-fluorophenyl)-3-(4-methanesulfonylphenyl)-thienyl-5-carboxylic acid], for which the values for the IC50 on Murine COX II and at Murine COX I were 5.5 µM and more than 100 µM, respectively.

For `CS(=O)(=O)c1ccc(-c2c(C(=O)O)sc(C(=O)O)c2-c2ccc(F)cc2)cc1` [Example 9, 4-(4-Fluorophenyl)-3-(4-methanesulfonylphenyl)thienyl-2,5-dicarboxylic acid], the values for the IC50 on Murine COX II and at Murine COX I were 4.7 µM and more than 100 µM, respectively.

In the case of `CS(=O)(=O)c1ccc(-c2cscc2-c2ccccc2)cc1` [Example 10, 3-(4-Methanesulfonylphenyl)-4-phenyl-thiophene], the IC50 at Murine COX II is less than 0.1 µM; at Murine COX I, more than 10 µM; in data set [1], 7 µM.

For `Cc1ccc(-c2cscc2-c2ccc(S(C)(=O)=O)cc2)cc1` [Example 11, 3-(4-Methanesulfonylphenyl)-4-(4-methylphenyl)thiophene], the IC50 at Murine COX II is less than 0.1 µM; on Murine COX I it was more than 100 µM; in [1], 7 µM.

In turn, `NS(=O)(=O)c1ccc(-c2cscc2-c2ccc(F)cc2)cc1` [Example 12, 4-[4-(4-Fluorophenyl)thien-3-yl]benzenesulfonamide] showed a melting point of 194 to 195 °C.

Regarding `CS(=O)(=O)c1ccc(-c2cocc2-c2ccc(F)cc2)cc1` [Example 13, 3-(4-Fluorophenyl)-4-(methylsulfonylphenyl)furan], the melting point lay within 160 to 161 °C. For the same compound, the IC50 at human COX I (human COX I enzyme (footnote *), read-out: COX I ID50) is more than 100 µM. Moreover, on human COX II (human COX II enzyme (footnote *), read-out: COX II ID50), the IC50 turned out to be 1.9 µM.

With `CS(=O)(=O)c1ccc(-c2cscc2-c2ccc(F)nc2)cc1` [Example 14], the melting point is 190 to 191 °C (dec.). Further, the IC50 at Murine COX II worked out at 0.2 µM. Moreover, the IC50 at Murine COX I is more than 10 µM. For the same compound, the IC50 in data set [1] was 27 µM.

`Cc1cc(F)ccc1-c1cscc1-c1ccc(S(C)(=O)=O)cc1` [Example 15, 3-(4-Methylsulfonylphenyl)-4-(2-methyl-4-fluorophenyl)thiophene] returned a melting point of 158 to 160 °C. For the same compound, on Murine COX I, the IC50 is 8.5 µM. In data set [1], the IC50 came to 28 µM.

Regarding `CS(=O)(=O)Nc1ccc([N+](=O)[O-])cc1OC1CCCCC1` [N-(2-cyclohexyloxy-4-nitrophenyl)methanesulfonamide], the gastric side effects entry in [2] is on record as “lacks gastric side effects”. Moreover, in data set [3], the antiinflammatory activity entry is on record as “antiinflammatory”.

(Values after US20030013744A1, “3,4-diaryl thiophenes and analogs thereof having use as anti-inflammatory agents” (G.D. Searle & Co., priority 1993, published 2003).)
